Data taken from patent US9326990B2, “Heart failure suppressing agent” (THE UNIVERSITY OF TOKYO, priority 2011, dated 2016).

Legend:
Format in all cases: in vivo
[1] = test system: angiotensin II-continuous infusion SD rat; assay: Angiotensin II-continuous infusion rat model of cardiac fibrosis and cardiomegaly
Experimental: Angiotensin II was continuously infused to an 8 week-old male SD rat, and the action of luteolin glycoside (luteolin-7-O-glucoside was used) to cardiac fibrosis and cardiomegaly in the acceleration state of oxidative stress was investigated. For the control group, rats were normally raised. For the angiotensin II group (Ang II group), an angiotensin II-continuous infusion pump was implanted subcutaneously in the rat, and continuous infusion was performed for 7 days. For the luteolin glycoside simultaneous-administration group (Ang II+LMG group), a luteolin glycoside-blended feed (3.6 g of luteolin monoglycoside (LMG) was blended per 10 kg of feed) was fed for 3 weeks, then an angiotensin II-continuous infusion pump was implanted subcutaneously, and continuous infusion was performed for 7 days.
(§1) The blood pressure was measured at the seventh day, the degree of the ventricular wall thickness was evaluated with echocardiographic examination, then the heart was removed, and the weights of the heart and the ventricle were measured. The reactive oxygen was evaluated with hydroethidine staining, and the degree of fibrosis was evaluated with Masson's trichrome staining. Gene expressions of the fibrosis marker, and the heart failure marker in the ventricular tissue were evaluated with real time PCR.

[2] = test system: TGF-β1 (transforming growth factor) gene expression; assay: Real time PCR of fibrosis marker gene TGF-β1 in ventricular tissue, angiotensin II rat model; settings: corrected with GAPDH, Ang II + luteolin glycoside, FIG. 6
Experimental: (§2) Angiotensin II was continuously infused to an 8 week-old male SD rat, and the action of luteolin glycoside (luteolin-7-O-glucoside was used) to cardiac fibrosis and cardiomegaly in the acceleration state of oxidative stress was investigated. For the control group, rats were normally raised. For the angiotensin II group (Ang II group), an angiotensin II-continuous infusion pump was implanted subcutaneously in the rat, and continuous infusion was performed for 7 days. […]
as §1
(§3) RNA was extracted from the ventricular tissue, and expression amounts of various genes were evaluated with real time PCR.

[3] = test system: CTGF (connective tissue growth factor) gene expression; assay: Real time PCR of fibrosis marker gene CTGF in ventricular tissue, angiotensin II rat model; settings: corrected with GAPDH, Ang II + luteolin glycoside, FIG. 6
Experimental: as §2, §1, §3

[4] = test system: ANP (atrial natriuretic peptide) gene expression; assay: Real time PCR of cardiomegaly/heart failure marker gene ANP in ventricular tissue, angiotensin II rat model; settings: corrected with GAPDH, Ang II + luteolin glycoside, FIG. 7
Experimental: as §2, §1, §3

[5] = test system: BNP (brain natriuretic peptide) gene expression; assay: Real time PCR of cardiomegaly/heart failure marker gene BNP in ventricular tissue, angiotensin II rat model; settings: corrected with GAPDH, Ang II + luteolin glycoside, FIG. 7
Experimental: as §2, §1, §3

[6] = test system: ApoE gene-deficient female mouse (ApoE−/−); assay: Acute aneurysm model by angiotensin II-continuous infusion in ApoE gene-deficient mouse
Description: Angiotensin II was continuously infused (for 16 weeks to 20 weeks) to a 12 week-old ApoE gene-deficient female mouse (ApoE−/−) (about 25 g of body weight) whereby to prepare an acute aneurysm model, and the action of luteolin glycoside (luteolin-7-O-glucoside was used) was investigated. For the control group (n=5), mice were normally raised (saline was continuously infused). For the angiotensin II group ([…]), an angiotensin II-continuous infusion pump was implanted subcutaneously in the mouse, and continuous infusion was performed for 4 weeks. For the luteolin glycoside simultaneous-administration group (Ang II+luteolin group), a luteolin glycoside-blended feed (0.055% of luteolin-7-O-glucoside was blended per feed) was fed for 3 weeks, then an angiotensin II-continuous infusion pump was implanted subcutaneously, and continuous infusion was performed for 4 weeks.
When the mouse was 20 weeks old, the blood pressure and body weight were measured, then the heart, the kidney and the aorta were removed, and generation of aneurysm was observed.

[7] = Plasma luteolin concentration after oral administration to rats; settings: male SD rat, 93 mg/kg PO; in comparison to luteolin (51 mg/kg PO) and luteolin-7-O-apiosyl glucoside (175 mg/kg PO), same aglycone amount; 0.5-8 hours; FIG. 12
Experimental: Luteolin (51 mg/kg, PO), luteolin-7-O-glucoside (93 mg/kg, PO) and luteolin-7-O-apiosyl glucoside (175 mg/kg, PO) were orally administered to rats (8 weeks old, male SD rat), the blood was collected just before the administration, and at 0.5 hours, 1 hour, 2 hours and 8 hours after the administration from the tail vein, and the plasma luteolin concentration was measured. Meanwhile, the doses of each of the luteolin and a glycoside thereof were the same in terms of the amount of luteolin that is an aglycone.

## O=c1cc(-c2ccc(O)c(O)c2)oc2cc(O[C@@H]3O[C@H](CO)[C@@H](O)[C@H](O)[C@H]3O)cc(O)c12 [luteolin glycoside, luteolin-7-O-glucoside]
[1]; LMG-blended feed (3.6 g per 10 kg feed) 3 weeks, then Ang II infusion 7 days, seventh day, FIG. 1
  blood pressure increased by angiotensin II-continuous administration: did not lower
[1]; LMG-blended feed, Ang II 7 days, Masson's trichrome staining, FIG. 5
  fibrosis of the ventricular wall by angiotensin II: remarkably suppressed
[1]; LMG-blended feed, Ang II 7 days, echocardiographic examination, FIG. 2
  ventricular wall thickening by angiotensin II administration: significantly suppressed
[1]; LMG-blended feed, Ang II 7 days, hydroethidine staining, FIG. 4
  generation of reactive oxygen in the ventricular wall by angiotensin II: remarkably suppressed
[2]
  gene expression of TGF-β1 in ventricular tissue: suppression of the expression
[3]
  gene expression of CTGF in ventricular tissue: suppression of the expression
[4]
  gene expression of ANP in ventricular tissue: suppression of the expression
[5]
  gene expression of BNP in ventricular tissue: suppression of the expression
[6]; 0.055% luteolin-7-O-glucoside feed 3 weeks, then Ang II infusion 4 weeks, 20 weeks old, FIG. 8
  blood pressure: not recognized
[6]; 0.055% luteolin-7-O-glucoside feed, Ang II 4 weeks, 20 weeks old, FIG. 8
  body weight: not recognized
[6]; 0.055% luteolin-7-O-glucoside feed, Ang II 4 weeks, FIG. 9
  aneurysm formation (appearance): definitely suppressed
[6]; 0.055% luteolin-7-O-glucoside feed, Ang II 4 weeks, FIG. 10
  diameter of aneurysm: decreased
[6]; 0.055% luteolin-7-O-glucoside feed, Ang II 4 weeks, FIG. 11
  rupture of the arterial wall elastic fiber: suppressed
[7]
  oral absorption (plasma luteolin concentration): remarkably higher
